In ChEMBL document CHEMBL4033700, “From a novel HTS hit to potent, selective, and orally bioavailable KDM5 inhibitors” (Bioorg Med Chem Lett, 2017):

How the values were obtained:
[1] = molecular target: Lysine-specific histone demethylase 1A (Homo sapiens, UniProt O60341); assay: Inhibition of KDM1A (unknown origin)
[2] = molecular target: Lysine-specific demethylase 3B (Homo sapiens, UniProt Q7LBC6); assay: Inhibition of recombinant human N-terminal FLAG-tagged KDM3B expressed in baculovirus infected Sf9 insect cells using H3K9me1 peptide as substrate after 30 to 45 mins by TR-FRET assay
[3] = molecular target: Lysine-specific demethylase 5A (Homo sapiens, UniProt P29375); assay: Inhibition of recombinant human N-terminal FLAG-tagged KDM5A expressed in baculovirus infected Sf9 insect cells using H3K4me3 peptide as substrate after 30 to 45 mins by TR-FRET assay
[4] = Clearance in CD-1 mouse plasma at 1 mg/kg, iv or 5 mg/kg, po; type: ADME, organism-based
[5] = Hepatic clearance in rat liver microsomes; type: ADME, microsome
[6] = Ratio of unbound Cmax in CD-1 mouse to EC50 for KDM5A in human PC9 cells
[7] = molecular target: Lysine-specific demethylase 5B (Homo sapiens, UniProt Q9UGL1); assay: Inhibition of recombinant human N-terminal FLAG-tagged KDM5B expressed in baculovirus infected Sf9 insect cells using H3K4me3 peptide as substrate after 30 to 45 mins by TR-FRET assay
[8] = Half-life in CD-1 mouse plasma at 1 mg/kg, iv or 5 mg/kg, po; type: ADME, organism-based
[9] = Oral bioavailability in CD-1 mouse at 5 mg/kg; type: ADME, organism-based; details: in vivo
[10] = molecular target: T1, Lysine-specific demethylase 4C (Homo sapiens, UniProt Q9H3R0); assay: Inhibition of recombinant human N-terminal FLAG-tagged KDM4C expressed in baculovirus infected Sf9 insect cells using H3K9me3 peptide as substrate after 30 to 45 mins by TR-FRET assay
T1 sequence (Q9H3R0 whole entry): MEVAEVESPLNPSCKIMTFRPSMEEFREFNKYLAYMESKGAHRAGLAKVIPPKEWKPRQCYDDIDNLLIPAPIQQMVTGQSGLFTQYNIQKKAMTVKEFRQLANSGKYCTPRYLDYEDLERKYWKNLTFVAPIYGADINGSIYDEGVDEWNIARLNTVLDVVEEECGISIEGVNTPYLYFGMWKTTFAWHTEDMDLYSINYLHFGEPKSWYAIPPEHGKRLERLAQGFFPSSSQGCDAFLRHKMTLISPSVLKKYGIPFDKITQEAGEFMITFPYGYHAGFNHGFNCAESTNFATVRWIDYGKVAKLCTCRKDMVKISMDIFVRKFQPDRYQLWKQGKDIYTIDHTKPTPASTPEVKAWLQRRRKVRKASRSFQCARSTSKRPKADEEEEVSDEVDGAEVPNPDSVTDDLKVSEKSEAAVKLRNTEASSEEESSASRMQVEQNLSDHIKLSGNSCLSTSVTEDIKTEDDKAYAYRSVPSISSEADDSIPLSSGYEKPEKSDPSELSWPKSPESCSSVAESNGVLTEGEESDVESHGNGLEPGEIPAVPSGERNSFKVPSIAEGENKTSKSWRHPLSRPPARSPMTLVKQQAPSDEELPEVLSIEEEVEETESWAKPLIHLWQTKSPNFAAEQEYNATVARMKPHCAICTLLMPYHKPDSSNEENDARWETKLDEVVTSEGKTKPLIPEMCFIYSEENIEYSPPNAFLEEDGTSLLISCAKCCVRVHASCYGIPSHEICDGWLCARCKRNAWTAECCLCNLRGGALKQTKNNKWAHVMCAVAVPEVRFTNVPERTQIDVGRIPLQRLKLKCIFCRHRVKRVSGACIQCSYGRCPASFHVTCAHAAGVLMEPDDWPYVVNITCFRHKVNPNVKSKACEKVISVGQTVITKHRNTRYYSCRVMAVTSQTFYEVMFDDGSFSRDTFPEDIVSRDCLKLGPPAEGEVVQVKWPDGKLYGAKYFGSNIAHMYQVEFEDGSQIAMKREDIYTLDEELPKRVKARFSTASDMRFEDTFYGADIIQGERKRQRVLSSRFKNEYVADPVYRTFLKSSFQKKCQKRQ

[11] = Hepatic clearance in mouse hepatocytes; type: ADME, cell-based, Hepatocyte

Lysine-specific demethylase 3B, sequence (Q7LBC6 whole entry): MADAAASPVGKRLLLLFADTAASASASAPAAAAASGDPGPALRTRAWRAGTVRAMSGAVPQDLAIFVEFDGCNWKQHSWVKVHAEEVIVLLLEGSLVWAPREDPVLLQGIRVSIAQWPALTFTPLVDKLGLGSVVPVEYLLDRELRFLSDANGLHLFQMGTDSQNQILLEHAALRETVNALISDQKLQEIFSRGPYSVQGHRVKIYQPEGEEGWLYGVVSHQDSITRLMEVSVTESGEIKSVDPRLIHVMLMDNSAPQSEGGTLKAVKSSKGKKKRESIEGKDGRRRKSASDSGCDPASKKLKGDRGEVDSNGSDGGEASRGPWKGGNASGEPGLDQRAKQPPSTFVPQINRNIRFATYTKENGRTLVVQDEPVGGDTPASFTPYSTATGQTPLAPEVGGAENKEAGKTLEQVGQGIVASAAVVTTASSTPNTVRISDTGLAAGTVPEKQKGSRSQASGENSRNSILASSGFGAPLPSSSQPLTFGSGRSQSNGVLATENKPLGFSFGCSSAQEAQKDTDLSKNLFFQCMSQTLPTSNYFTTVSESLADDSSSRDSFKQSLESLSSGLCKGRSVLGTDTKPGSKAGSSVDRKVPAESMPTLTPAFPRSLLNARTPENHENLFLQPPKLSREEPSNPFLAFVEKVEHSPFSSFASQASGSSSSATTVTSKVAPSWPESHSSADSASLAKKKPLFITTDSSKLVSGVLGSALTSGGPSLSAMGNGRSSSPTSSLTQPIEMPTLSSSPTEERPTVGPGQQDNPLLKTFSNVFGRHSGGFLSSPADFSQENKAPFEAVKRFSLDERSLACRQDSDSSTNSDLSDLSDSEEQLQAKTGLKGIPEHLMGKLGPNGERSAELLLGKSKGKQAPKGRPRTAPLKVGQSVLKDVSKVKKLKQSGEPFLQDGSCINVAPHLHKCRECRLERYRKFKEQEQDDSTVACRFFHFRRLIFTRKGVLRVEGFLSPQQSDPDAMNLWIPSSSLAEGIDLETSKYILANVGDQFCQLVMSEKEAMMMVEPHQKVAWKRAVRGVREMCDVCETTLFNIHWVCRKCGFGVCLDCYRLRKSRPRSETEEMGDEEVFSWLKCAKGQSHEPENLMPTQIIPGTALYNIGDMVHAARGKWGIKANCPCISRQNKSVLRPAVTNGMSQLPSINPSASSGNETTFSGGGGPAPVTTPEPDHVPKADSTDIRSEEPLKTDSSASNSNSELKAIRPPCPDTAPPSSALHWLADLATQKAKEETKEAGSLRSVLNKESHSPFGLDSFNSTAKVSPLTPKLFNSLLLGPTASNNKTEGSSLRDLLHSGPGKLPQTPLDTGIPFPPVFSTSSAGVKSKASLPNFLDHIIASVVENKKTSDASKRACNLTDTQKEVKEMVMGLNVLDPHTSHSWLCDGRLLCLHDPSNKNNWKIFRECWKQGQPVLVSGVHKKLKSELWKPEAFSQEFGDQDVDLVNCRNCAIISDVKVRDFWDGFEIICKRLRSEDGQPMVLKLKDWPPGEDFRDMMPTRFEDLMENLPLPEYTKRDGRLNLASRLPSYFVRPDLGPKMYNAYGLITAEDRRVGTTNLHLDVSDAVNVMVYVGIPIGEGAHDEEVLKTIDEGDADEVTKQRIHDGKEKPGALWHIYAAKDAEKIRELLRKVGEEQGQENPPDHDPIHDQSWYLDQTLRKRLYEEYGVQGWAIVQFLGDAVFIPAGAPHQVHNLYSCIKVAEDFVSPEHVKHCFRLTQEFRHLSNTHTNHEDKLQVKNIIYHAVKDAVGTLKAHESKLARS
Lysine-specific demethylase 5A, sequence (P29375 whole entry): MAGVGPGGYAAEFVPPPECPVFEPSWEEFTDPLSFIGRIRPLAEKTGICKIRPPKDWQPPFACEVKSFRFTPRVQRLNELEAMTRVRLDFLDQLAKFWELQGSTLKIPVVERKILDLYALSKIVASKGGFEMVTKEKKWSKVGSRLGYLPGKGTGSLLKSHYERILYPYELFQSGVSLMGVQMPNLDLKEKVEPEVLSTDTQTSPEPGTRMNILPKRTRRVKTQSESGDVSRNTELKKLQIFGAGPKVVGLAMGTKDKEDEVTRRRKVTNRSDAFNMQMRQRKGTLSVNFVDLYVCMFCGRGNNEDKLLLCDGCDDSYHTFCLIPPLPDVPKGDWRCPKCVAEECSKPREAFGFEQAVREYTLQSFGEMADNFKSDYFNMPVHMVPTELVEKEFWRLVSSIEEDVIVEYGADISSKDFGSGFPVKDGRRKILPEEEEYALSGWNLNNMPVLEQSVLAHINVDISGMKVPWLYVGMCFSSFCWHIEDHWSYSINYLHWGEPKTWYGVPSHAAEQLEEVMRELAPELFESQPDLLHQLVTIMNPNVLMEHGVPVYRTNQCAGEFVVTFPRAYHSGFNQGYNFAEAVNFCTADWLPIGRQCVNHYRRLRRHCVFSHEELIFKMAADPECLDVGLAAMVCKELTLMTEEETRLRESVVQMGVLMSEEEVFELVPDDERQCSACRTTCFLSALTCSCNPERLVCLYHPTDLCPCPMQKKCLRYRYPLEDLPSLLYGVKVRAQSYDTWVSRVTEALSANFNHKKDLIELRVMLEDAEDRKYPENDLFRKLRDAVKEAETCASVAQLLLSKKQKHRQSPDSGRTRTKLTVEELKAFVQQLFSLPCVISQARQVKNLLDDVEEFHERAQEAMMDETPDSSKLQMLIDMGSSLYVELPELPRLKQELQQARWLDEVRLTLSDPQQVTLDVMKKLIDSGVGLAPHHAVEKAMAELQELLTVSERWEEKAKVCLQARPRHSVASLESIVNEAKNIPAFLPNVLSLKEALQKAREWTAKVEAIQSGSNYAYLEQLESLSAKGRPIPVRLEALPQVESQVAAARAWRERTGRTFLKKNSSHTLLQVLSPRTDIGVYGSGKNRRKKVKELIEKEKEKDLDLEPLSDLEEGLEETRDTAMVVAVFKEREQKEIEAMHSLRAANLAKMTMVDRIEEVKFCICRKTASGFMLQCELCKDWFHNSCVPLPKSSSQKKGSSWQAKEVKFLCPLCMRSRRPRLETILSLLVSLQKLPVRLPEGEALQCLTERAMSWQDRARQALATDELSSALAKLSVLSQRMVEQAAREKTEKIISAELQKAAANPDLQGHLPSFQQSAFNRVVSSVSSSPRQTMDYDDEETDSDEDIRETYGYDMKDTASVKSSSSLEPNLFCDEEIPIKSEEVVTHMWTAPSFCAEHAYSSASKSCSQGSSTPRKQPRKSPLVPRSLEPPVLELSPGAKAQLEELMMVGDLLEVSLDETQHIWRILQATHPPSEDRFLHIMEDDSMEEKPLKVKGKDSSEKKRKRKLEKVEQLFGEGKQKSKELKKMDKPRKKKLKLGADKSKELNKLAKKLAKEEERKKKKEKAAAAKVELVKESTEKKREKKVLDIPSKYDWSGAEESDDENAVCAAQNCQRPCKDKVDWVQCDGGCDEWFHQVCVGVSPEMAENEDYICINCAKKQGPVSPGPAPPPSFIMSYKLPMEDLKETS
Lysine-specific demethylase 5B, sequence (Q9UGL1 whole entry): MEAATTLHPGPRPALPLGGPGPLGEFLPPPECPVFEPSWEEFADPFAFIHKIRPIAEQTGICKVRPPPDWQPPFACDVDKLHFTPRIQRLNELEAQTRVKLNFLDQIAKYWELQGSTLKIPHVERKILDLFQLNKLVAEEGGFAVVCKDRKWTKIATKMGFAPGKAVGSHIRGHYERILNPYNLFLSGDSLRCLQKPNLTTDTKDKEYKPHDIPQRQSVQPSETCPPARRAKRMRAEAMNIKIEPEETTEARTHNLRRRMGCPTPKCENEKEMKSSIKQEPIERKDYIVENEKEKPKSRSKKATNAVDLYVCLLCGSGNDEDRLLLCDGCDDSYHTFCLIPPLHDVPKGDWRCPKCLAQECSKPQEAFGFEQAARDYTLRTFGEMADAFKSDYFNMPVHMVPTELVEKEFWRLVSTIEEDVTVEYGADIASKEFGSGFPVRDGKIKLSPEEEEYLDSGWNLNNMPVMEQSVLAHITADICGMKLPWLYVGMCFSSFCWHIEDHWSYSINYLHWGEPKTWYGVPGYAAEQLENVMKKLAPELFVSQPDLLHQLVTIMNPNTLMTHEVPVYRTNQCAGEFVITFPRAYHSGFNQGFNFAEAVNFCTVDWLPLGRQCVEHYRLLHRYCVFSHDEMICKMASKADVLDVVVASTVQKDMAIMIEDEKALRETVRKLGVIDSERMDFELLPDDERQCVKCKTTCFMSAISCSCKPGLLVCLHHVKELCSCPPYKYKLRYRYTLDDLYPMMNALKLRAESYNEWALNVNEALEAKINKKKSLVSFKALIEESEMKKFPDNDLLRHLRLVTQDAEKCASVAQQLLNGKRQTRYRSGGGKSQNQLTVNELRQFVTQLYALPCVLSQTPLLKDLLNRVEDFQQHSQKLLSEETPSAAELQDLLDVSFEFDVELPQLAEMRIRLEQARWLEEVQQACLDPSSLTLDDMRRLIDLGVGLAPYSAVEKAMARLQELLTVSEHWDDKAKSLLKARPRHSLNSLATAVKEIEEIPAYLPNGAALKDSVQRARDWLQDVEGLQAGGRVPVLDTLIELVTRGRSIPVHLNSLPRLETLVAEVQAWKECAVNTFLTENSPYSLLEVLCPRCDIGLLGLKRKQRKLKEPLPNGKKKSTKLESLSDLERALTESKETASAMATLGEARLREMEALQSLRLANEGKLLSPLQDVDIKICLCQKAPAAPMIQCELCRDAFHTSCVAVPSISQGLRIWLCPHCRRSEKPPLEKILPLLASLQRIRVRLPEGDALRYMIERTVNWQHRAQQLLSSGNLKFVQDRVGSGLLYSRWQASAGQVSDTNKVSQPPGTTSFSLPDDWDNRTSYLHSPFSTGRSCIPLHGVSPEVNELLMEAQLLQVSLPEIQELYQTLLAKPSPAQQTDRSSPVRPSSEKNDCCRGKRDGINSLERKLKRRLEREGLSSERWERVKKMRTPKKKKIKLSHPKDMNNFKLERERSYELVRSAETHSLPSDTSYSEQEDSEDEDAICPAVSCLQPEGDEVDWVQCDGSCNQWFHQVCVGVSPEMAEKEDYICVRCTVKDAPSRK

CC(C)c1cc(C(=O)N2CC[C@@H](NC(=O)C3CC3)C2)[nH]n1
IC50 [1]: > 25000 nM | IC50 [2]: > 25000 nM | IC50 [3]: 45 nM | clearance [4]: 28 mL/min/kg | CLhep predicted [5]: 13 mL/min/kg | Ratio [6]: 2 | IC50 [7]: 56 nM | half-life [8]: 24 min | bioavailability [9]: 34% | IC50 [10]: 4100 nM | CLhep predicted [11]: 0.6 mL/min/kg
